Experimental data published in PubChem BioAssay (NCI).
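In this assay, cells in 96-well plates receive the compound at five concentrations for 48 hours. Endpoints are linearly interpolated between the surrounding concentrations. At the GI50, growth is halved. At the TGI there is no net growth.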

Legend:
Experiment in all cases: growth of human tumour cells (NCI), 48 h
TK-10 renal = tested on: TK-10 renal
SF-295 CNS = tested on: SF-295 CNS
HT29 colon = tested on: HT29 colon
M14 melanoma = tested on: M14 melanoma
HOP-62 NSCLC = tested on: HOP-62 NSCLC
SW-620 colon = tested on: SW-620 colon
SK-MEL-2 melanoma = tested on: SK-MEL-2 melanoma
EKVX NSCLC = tested on: EKVX NSCLC
NCI-H522 lung = tested on: NCI-H522 lung
CAKI-1 renal = tested on: CAKI-1 renal

Row | Structure (SMILES) | GI50 (TK-10 renal) [µM] | TGI (TK-10 renal) [µM] | GI50 (SF-295 CNS) [µM] | TGI (SF-295 CNS) [µM] | GI50 (HT29 colon) [µM] | TGI (HT29 colon) [µM] | GI50 (M14 melanoma) [µM] | TGI (M14 melanoma) [µM] | GI50 (HOP-62 NSCLC) [µM] | TGI (HOP-62 NSCLC) [µM] | GI50 (SW-620 colon) [µM] | TGI (SW-620 colon) [µM] | GI50 (SK-MEL-2 melanoma) [µM] | TGI (SK-MEL-2 melanoma) [µM] | GI50 (EKVX NSCLC) [µM] | TGI (EKVX NSCLC) [µM] | GI50 (NCI-H522 lung) [µM] | TGI (NCI-H522 lung) [µM] | GI50 (CAKI-1 renal) [µM] | TGI (CAKI-1 renal) [µM]
1 | COc1ccc(C2=NN(c3ccc(S(N)(=O)=O)cc3)C(c3ccc(Cl)cc3)C2)c(O)c1 (stereo not drawn) | 2.49 | 9.02 | 3.1 | 14.5 | 2.83 | 8.68 | 7.89 | 25.2 | 9.35 | 28.5 | 3.68 | 14.8 | 6.3 | 22.7 | 2.71 | 10.5 | 2.42 | 11.1 | 2.67 | 8.64
2 | COc1ccc(C(=O)Nc2ccccc2)cc1[N+](=O)[O-] |  | > 100 |  | > 100 |  | > 100 |  | > 100 |  | > 100 |  | > 100 |  | > 100 |  | > 100 |  | > 100 |  | > 100
3 | CCOc1ccc(NC(=O)/C(=C/c2ccccc2)C(C)=O)cc1 |  | 32.9 |  | 29.4 |  | 33.3 |  | 26 |  | 30.3 |  | 33.2 |  | 26.4 |  | 35.4 |  | 7.66 |  | 25.3
4 | CNS(=O)(=O)NN(C)S(=O)(=O)c1ccc(C)cc1 |  | > 100 |  | > 100 |  | > 100 |  | > 100 |  | > 100 |  | > 100 |  | > 100 |  | > 100 |  | > 100 |  | > 100
5 | O=C1c2cccnc2-c2nc(-c3ccccc3)cc3c2c1nc1ccccc13 | 24.3 | > 85.2 | 11.4 | 25.3 | 2.59 | 7.16 | 3.57 | 15.7 | 14.5 | 28.3 | 2.56 | > 35.2 | 5.53 | 20.1 | 5.1 | 18.1 | 0.714 | 3.06 | 6.67 | 17.5
6 | CC[C@]12C=CCN3CC[C@]4(C(=C(C(=O)OC)C1)Nc1ccccc14)[C@@H]32 | 4.86 | 17.6 | 13 | 26.6 | 3.41 | 12.8 | 2.97 | 12.5 | 9.78 | 28.4 | 3.18 | 12.3 | 4.45 | 17.7 | 5.99 | 22.4 | 3.24 | 14.1 | 4.7 | 17.3
7 | COc1cc(-c2cn(-c3ccc(Cl)cc3)c(=O)n2-c2ccccc2)cc(OC)c1OC | > 100 | > 100 | 55.7 | > 100 | 56.3 | > 100 | > 100 | > 100 | > 85.3 | > 100 | > 100 | > 100 | > 25.9 | > 100 | > 100 | > 100 | 45.1 | > 100 | > 100 | > 100
8 | COC(=O)C1(C)CCc2c(ccc3ccccc23)C1=O (stereo not drawn) |  | 95.7 |  | > 100 |  | > 100 |  | 83.8 |  | > 100 |  | > 100 |  | 64.8 |  | > 100 |  | 57.3 |  | 41.6
9 | c1ccc(COc2ccc(Nc3ncnc4ccc(-c5ccco5)cc34)cc2)cc1 | 3.26 | 16.3 | 8.62 | > 25 | 4.52 | 16.1 | 7.31 | 19.9 | 5.85 | 16 | 7.47 | 22.7 | 9.68 | 24.6 | 1.81 | > 25 | 4.84 | 15.1 | 2.19 | > 25
10 | Nc1ncn([C@@H]2C=C(CO)C(O)C2O)c(=O)n1 (stereo partly drawn) |  | > 100 |  | > 100 |  | > 100 |  | > 100 |  | > 100 |  | > 100 |  | > 100 |  | > 100 |  | > 100 |  | > 100
11 | Cc1ccc2c(c1)/C(=N\N=C/c1cn(C(C)C)c3ccccc13)C(=O)N2 | 15 | > 100 | > 100 | > 100 | 2.82 | > 100 | 3.95 | > 100 | 28.4 | > 100 | 0.937 | > 100 | 2.3 | 23 | 22 | > 100 | 1.05 | > 100 | 2.6 | > 100
12 | CC1OC(OC2C(OC3CCC4(C)C(CCC5(C)C4CC=C4C6CC(C)(C)CCC6(CO)C(O)CC45C)C3(C)C)OC(C(=O)O)C(OC3OC(COC4OC(CO)C(O)C(O)C4O)C(O)C(O)C3O)C2O)C(O)C(O)C1O (stereo not drawn) | 16.1 | 28.4 | 8.13 | 20.2 | 11.9 | 25.5 | 2.5 | 9.24 | 14.8 | 30.9 | 12.5 | 24.2 | 8.57 | 20.1 | 2.41 | 11.5 | 1.43 | 2.95 | 10.6 | 22.1
13 | O=C(O)Cc1ccccc1 | > 1000 | > 2000 |  | > 2000 |  | > 2000 | > 1000 | > 2000 | > 1000 | > 2000 | > 1000 | > 2000 | > 1000 | > 2000 | > 1000 | > 2000 | > 1000 | > 2000 | > 1000 | > 1000
14 | COc1cc2nc(-c3ccc(Cl)cc3)cc(OCCCN3CCC(O)CC3)c2cc1OC | 2.14 | 6.75 | 1.66 | 3.58 | 0.7 | 3.81 | 0.591 | 2.21 | 1.98 | 10.4 | 3.05 | 13 | 2.07 | 5.05 | 1.33 | 12.9 | 2.19 | 5.77 | 0.416 | 5.24
